Patent US7192953B2, “Antibacterial agents” (Vernalis (Oxford) Limited, priority 2002, dated 2007)
Values after ≈ are worked out from the molar mass of the structure shown.

Legend:
Format in all cases: cell-based
H. influenzae = test: MIC by agar plate dilution against clinical isolates of H. influenzae; conditions: 4 strains of H. influenzae (clinical isolates), 18 to 24 hr, 35° C; for MIC: Haemophilus influenzae, read-out: MIC or MIC range, H. Influenzae
Protocol: (§1) Minimal Inhibitory concentrations (MIC) of inhibitors against clinical isolates of S. pneumoniae, H. influenzae and M. catarrhalis obtained from the Public Health and Clinical Microbiology Laboratory, Addenbrooke's Hospital, Hills Road, Cambridge CB2 2QW, UK, were determined by a standard agar plate dilution method following recommended in British Society for Antimicrobial Chemotherapy Working Party. 1991. “A guide to sensitivity testing British Society for Antimicrobial Chemotherapy, London, United Kingdom”. Briefly Iso-Sensitest agar (pH 7.2: Oxoid, United Kingdom) was employed supplemented with 5% horse blood (Oxoid) and 20 μg of NAD (Sigma) per ml to support growth of fastidious bacteria. The inoculum used was approximately 10^4 colony forming units of each isolate contained in a volume of 1 μl. Plates were incubated 18 to 24 hr in air, or for fastidious bacteria an atmosphere enriched with 4–6% carbon dioxide at 35° C. The MIC was determined as the lowest concentration of an antimicrobial tested that inhibited growth of the inoculum, disregarding a single persisting colony or faint haze caused by the inoculation.
(§2) The compounds of the Examples were are antibacterially active in the above assays, The following table states the MICs or MIC ranges of the tested compounds against 6 strains of S. pneumoniae, 4 strains of H. influenzae and 3 strains of M. catarrhalis.

S. pneumoniae = test: MIC by agar plate dilution against clinical isolates of S. pneumoniae; conditions: 6 strains of S. pneumoniae (clinical isolates), 18 to 24 hr, 35° C; for MIC: Streptococcus pneumoniae, read-out: MIC or MIC range, S. pneumoniae
Protocol: as §1, §2

M. catarrhalis = test: MIC by agar plate dilution against clinical isolates of M. catarrhalis; conditions: 3 strains of M. catarrhalis (clinical isolates), 18 to 24 hr, 35° C; for MIC: Moraxella catarrhalis, read-out: MIC or MIC range, M. catarrhalis
Protocol: as §1, §2

Compound	MIC or MIC range, H. Influenzae (H. influenzae) [µg/mL]	MIC or MIC range, S. pneumoniae (S. pneumoniae) [µg/mL]	MIC or MIC range, M. catarrhalis (M. catarrhalis) [µg/mL]	MIC (H. influenzae) [µg/mL]	MIC (S. pneumoniae) [µg/mL]	MIC (M. catarrhalis) [µg/mL]
CN(C(=O)N1CCCCN1C(=O)[C@H](CC1CCCC1)CN(O)C=O)c1ccccc1 [Example 21, 2-[(2R)-Cyclopentylmethyl-3-(formylhydroxyamino)-propionyl]-tetrahydropyridazine-1-Carboxylic acid methylphenylamide]	4 to 16	1 to 4	0.125 (≈ 0.3 µM)	–	–	–
CC(C)(C)OC(=O)N1CCCN1C(=O)[C@H](CC1CCCC1)CN(O)C=O [Example 23, 2-[(2R)-Cyclopentylmethyl-3-(formylhydroxyamino)-propionyl]-pyrazolidine-1-Carboxylic acid tert-butyl ester]	0.5 to 2	8 to 16	<0.125	–	–	–
CC(C)(C)OC(=O)N1CCCCN1C(=O)[C@H](CC1CCCC1)CN(O)C=O [Example 24, 2-[(2R)-Cyclopentylmethyl-3-(formylhydroxyamino)-propionyl]-tetrahydropyridazine-1-Carboxylic acid tert-butyl ester]	–	–	–	1 to 4 (≈ 2.61 to 10.4 µM)	4 to 16 (≈ 10.4 to 41.7 µM)	< 0.125
COCC(=O)N1CCCN1C(=O)[C@H](CC1CCCC1)CN(O)C=O [Example 26, N-{(2R)-Cyclopentylmethyl-3-[2-(2-methoxyacetyl)-pyrazolidin-1-yl]-3-oxo-propyl}N-hydroxyformamide]	–	–	–	1 to 8 (≈ 2.93 to 23.4 µM)	8 (≈ 23.4 µM)	0.125 (≈ 0.366 µM)
O=CN(O)C[C@@H](CC1CCCC1)C(=O)N1CCCN1C(=O)c1ccccc1 [Example 27, N-{(2R)-Cyclopentylmethyl-3-[2-benzoyl-pyrazolidin-1-yl]-3-oxo-propyl}-N-hydroxyformamide]	–	–	–	2 to 16 (≈ 5.36 to 42.8 µM)	16 (≈ 42.8 µM)	0.06 (≈ 0.161 µM)
O=CN(O)C[C@@H](CC1CCCC1)C(=O)N1CCCN1C(=O)c1ccc(C(F)(F)F)cc1 [Example 28, N-{(2R)-Cyclopentylmethyl-3-[2-(4-trifluoromethylbenzoyl)-pyrazolidin-1-yl]-3-oxo-propyl}-N-hydroxyformamide]	–	–	–	16 (≈ 36.2 µM)	0.5 to 4 (≈ 1.13 to 9.06 µM)	0.06 (≈ 0.136 µM)
O=CN(O)C[C@@H](CC1CCCC1)C(=O)N1CCCN1C(=O)Cc1ccccc1 [Example 29, N-{(2R)-Cyclopentylmethyl-3-[2-phenylacetyl-pyrazolidin-1-yl]-3-oxo-propyl}-N-hydroxyformamide]	–	–	–	2 to 16 (≈ 5.16 to 41.3 µM)	4 to 8 (≈ 10.3 to 20.6 µM)	0.06 (≈ 0.155 µM)
O=CN(O)C[C@@H](CC1CCCC1)C(=O)N1CCCN1C(=O)C1CCCCC1 [Example 31, N-{(2R)-Cyclopentylmethyl-3-[2-Cyclohexanecarbonyl-pyrazolidin-1-yl]-3-oxo-propyl}-N-hydroxyformamide]	–	–	–	4 to 16 (≈ 10.5 to 42.2 µM)	8 (≈ 21.1 µM)	0.06 (≈ 0.158 µM)
O=CN(O)C[C@@H](CC1CCCC1)C(=O)N1CCCN1C(=O)c1ccc(N2CCOCC2)nc1 [Example 32, N-{(2R)-Cyclopentylmethyl-3-[2-(6-morpholin-4-yl-pyridine-3-Carbonyl)-pyrazolidin-1-yl]-3-oxo-propyl}-N-hydroxyformamide]	–	–	–	16 (≈ 34.8 µM)	1 to 8 (≈ 2.18 to 17.4 µM)	0.25 (≈ 0.544 µM)
COc1ccc(C(=O)N2CCCN2C(=O)[C@H](CC2CCCC2)CN(O)C=O)cc1 [Example 33, N-{(2R)-Cyclopentylmethyl-3-[2-(4-methoxybenzoyl)-pyrazolidin-1-yl]-3-oxo-propyl}-N-hydroxyformamide]	–	–	–	16 to 32 (≈ 39.7 to 79.3 µM)	4 to 16 (≈ 9.91 to 39.7 µM)	0.06 (≈ 0.149 µM)
O=CN(O)C[C@@H](CC1CCCC1)C(=O)N1CCCN1C(=O)c1ccc2c(c1)OCO2 [Example 34, N-{(2R)-Cyclopentylmethyl-3-[2-(benzo[1,3]-dioxole-5-Carbonyl)-pyrazolidin-1-yl]-3-oxo-propyl}N-hydroxyformamide]	–	–	–	4 to 16 (≈ 9.58 to 38.3 µM)	8 to 16 (≈ 19.2 to 38.3 µM)	0.125 (≈ 0.299 µM)
O=CN(O)C[C@@H](CC1CCCC1)C(=O)N1CCCN1C(=O)c1ccc(F)cc1 [Example 35, N-{(2R)-Cyclopentylmethyl-3-[2-(4-fluorobenzoyl)-pyrazolidin-1-yl]-3-oxo-propyl}-N-hydroxyformamide]	–	–	–	4 to 8 (≈ 10.2 to 20.4 µM)	16 (≈ 40.9 µM)	0.125 (≈ 0.319 µM)
O=CN(O)C[C@@H](CC1CCCC1)C(=O)N1CCCN1C(=O)c1cccnc1 [Example 36, N-{(2R)-Cyclopentylmethyl-3-[2-(pyridine-3-Carbonyl)-pyrazolidin-1-yl]-3-oxo-propyl}N-hydroxyformamide]	–	–	–	2 to 32 (≈ 5.34 to 85.5 µM)	8 (≈ 21.4 µM)	0.125 (≈ 0.334 µM)
COc1ccccc1NC(=O)N1CCCN1C(=O)[C@H](CC1CCCC1)CN(O)C=O [Example 38, 2-[(2R)-Cyclopentylmethyl-3-(formylhydroxyamino)-propionyl]-pyrazolidine-1-Carboxylic acid (2-methoxyphenyl)amide]	1 to 2	8 to 16	0.25 (≈ 0.597 µM)	–	–	–
O=CN(O)C[C@@H](CC1CCCC1)C(=O)N1CCCN1C(=O)Nc1ccccc1 [Example 39, 2-[(2R)-Cyclopentylmethyl-3-(formylhydroxyamino)-propionyl]-pyrazolidine-1-Carboxylic acid phenylamide]	–	–	–	0.125 to 2 (≈ 0.322 to 5.15 µM)	4 to 16 (≈ 10.3 to 41.2 µM)	< 0.125
O=CN(O)C[C@@H](CC1CCCC1)C(=O)N1CCCN1C(=O)Nc1ccc(F)cc1 [Example 40]	–	–	–	0.125 to 2 (≈ 0.308 to 4.92 µM)	8 to 16 (≈ 19.7 to 39.4 µM)	< 0.125
COc1cccc(NC(=O)N2CCCN2C(=O)[C@H](CC2CCCC2)CN(O)C=O)c1 [Example 41, 2-[(2R)-Cyclopentylmethyl-3-(formylhydroxyamino)-propionyl]-pyrazolidine-1-Carboxylic acid (3-methoxyphenyl)amide]	–	–	–	0.125 to 2 (≈ 0.299 to 4.78 µM)	4 to 8 (≈ 9.56 to 19.1 µM)	< 0.125
O=C(C[C@@H](CC1CCCC1)C(=O)N1CCCCN1C(=O)c1ccco1)NO [Example 44, (3R)-Cyclopentylmethyl-4-[2-(furan-2-Carbonyl)-tetrahydropyridazin-1-yl]-N-hydroxy-4-oxo-butyramide]	0.06 to 0.125	2 to 4	0.6 (≈ 1.59 µM)	–	–	–
(2R)-Cyclopentylmethyl-3-[2-(furan-2-Carbonyl)-pyrazolidin-1-yl]-3-oxo-propyl}formamide [Example 25]	<0.125 to 1	4 to 8	<0.125	–	–	–
(2R)-Cyclopentylmethyl-3-[2-(furan-2-Carbonyl)-tetrahydropyridazin-1-yl]-3-oxo-propyl}formamide [Example 1]	<0.125 to 0.25	0.5 to 2	<0.125	–	–	–
